The values that follow come from patent US20240425464A1, “Substituted Monohydrazides as Potent Antifungal Agents” (University of Kentucky Research Foundation, priority 2023, published 2024).

Structures are written as SMILES. ≈ marks a conversion by molar mass, not a printed value. Where two headings read alike, the source gives them in different places.

The test deals with C. auris strain AR Bank #390 (L). Description: MIC determination by in vitro antifungal assay. It is filed as cell-based, Candida auris. The following applies: strain L = C. auris AR Bank # 0390 (Tables 1A/1B). As for the experimental part: The antifungal agent amphotericin B (AmB) was purchased from VWR (Radnor PA, USA). AmB was dissolved in DMSO at a final concentration of 5 mg/mL and was stored at −20° C., protected from light. Candida albicans American Type Culture Collection (ATCC) 10231 (strain A), C. albicans ATCC 64124 (B), and C. albicans ATCC MYA-2876 (C) were obtained from Utah State University. C. albicans ATCC 90819 (D), C. albicans ATCC MYA-2310 (E), C. albicans ATCC MYA-1237 (F), C. albicans ATCC MYA-1003 (G), Candida glabrata ATCC 2001 (H), Candida krusei ATCC 6258 (I), Candida parapsilosis ATCC 22019 (J), Cryptococcus neoformans ATCC MYA-895 (M), Aspergillus terreus ATCC MYA-3633 (N), and Aspergillus flavus ATCC MYA-3631 (0) were obtained from the American Type Culture Collection (ATCC; Manassas, VA, USA). Aspergillus nidulans ATCC 38163 (P) was obtained from University of Kentucky. Clinically derived Aspergillus fumigatus NRRL 163 (Q), A. fumigatus NRRL 5109 (R), and A. fumigatus NRRL 6113 (S) were obtained from Northern Regional Research Laboratory (NRRL). Candida auris 384 (K), C. auris 390 (L), and fungal strains 381-400 (including 10 C. auris (AR Bank #381-390), 3 Candida duobushaemulonii (AR Bank #391, AR Bank #392, and AR Bank #394), 2 Candida haemulonii (AR Bank #393 and AR Bank #395), 1 Kodameae ohmeri (AR Bank #396), 1 C. krusei (AR Bank #397), 1 Candida lusitaniae (AR Bank #398), and 2 Saccharomyces cerevisiae strains (AR Bank #399 and AR Bank #400)) were part of a larger fungal library from the AR Bank maintained by the Centers for Disease Control and Prevention (CDC; Atlanta, GA, USA). Filamentous fungi and yeasts were cultivated at 35° C. in RPMI 1640 medium (with L-glutamine, without sodium bicarbonate, Sigma-Aldrich, St. Louis, MO) buffered to a pH of 7.0 with 0.165 M morpholinepropanesulfonic acid (MOPS) buffer (Sigma-Aldrich). For cytotoxicity assays, HepG2 and the mouse macrophage cell line J774A.1 were obtained from University of Kentucky. The human embryonic kidney cell line, HEK-293, was bought from the ATCC. Mammalian cells were grown in Dulbecco's Modified Eagle's Medium (DMEM) (from VWR) with 10% fetal bovine serum (FBS) (from VWR) and 1% Pen/Strep (from ATCC). Cell lines were cultured at 37° C. with 5% CO2 and passaged by trypsinization with 0.05% trypsin: 0.53 mM EDTA (from Sigma-Aldrich).
From the actively growing yeast culture, 100 µL were then transferred to 900 μL of RPMI 1640 medium and re-adjusted to achieve OD600 of 0.12 (˜1×10^6 CFU/mL). The cell suspension was further diluted to achieve 1:100 in RPMI 1640 medium.
Finally, the activity of these monohydrazides was explored against […] non-Candida strains: Cryptococcus neoformans ATCC MYA-895 (M), Aspergillus terreus ATCC MYA-3633 (N), Aspergillus flavus ATCC MYA-3631 (O), Aspergillus nidulans ATCC 38163 (P), Aspergillus fumigatus NRRL 163 (Q), A. fumigatus NRRL 5109 (R), and A. fumigatus NRRL 6113 (S) (Tables 1A and 1B). The double dilution method was used with concentrations ranging from 0.06 to 31.3 j·tg mL^−1 for monohydrazides 1a-9j, and the commercially available positive antifungal control amphotericin B (AmB).

The mark [1] stands for this setting: Candidozyma auris, read-out: MIC.

On to `O=C(NNc1cc(F)cc(F)c1)c1cnccn1` [Compound 9i], for which the MIC under setting [1] was found to be 1.95 µg/mL (≈ 7.79 µM).

`O=C(NNc1cccc(F)c1)c1cccc(F)n1` [Compound 5a] had an MIC of 3.9 μg/mL^−1.

As for `O=C(NNc1ccc(F)cc1)c1cnccn1` [Compound 9d], under setting [1], the MIC worked out at 0.98 µg/mL (≈ 4.22 µM).

Take `COc1ccc(NNC(=O)c2ccc(F)cc2F)cc1` [Compound 1f]: the MIC under setting [1] worked out at 1.95 µg/mL (≈ 7.01 µM).

On to `O=C(NNc1ccc(F)cc1)c1ccc(F)cc1F` [Compound 1d], for which the MIC under setting [1] came to 1.95 µg/mL (≈ 7.32 µM).

With `COc1ccc(NNC(=O)c2cccc(Br)n2)cc1` [Compound 6f], the MIC under setting [1] was 1.95 µg/mL (≈ 6.05 µM).

`O=C(NNc1cccc(F)c1)c1ncc(F)cc1F` [Compound 7a] registered an MIC of 1.95 μg/mL^−1.

In turn, `COc1ccc(NNC(=O)c2ccc(F)cn2)cc1` [Compound 3f] came in with an MIC of 0.49 μg/mL^−1.

For `O=C(NNc1cc(F)ccc1F)c1ccc(F)cc1F` [Compound 1h], under setting [1], the MIC stood at 15.6 µg/mL (≈ 54.9 µM).

In the case of `O=C(NNc1cccc(F)c1)c1ccc(Br)cn1` [Compound 4a], the MIC was determined as 1.95 μg/mL^−1.

On to `O=C(NNc1cccc(F)c1)c1cccc(Br)n1` [Compound 6a], for which the MIC was determined as 1.95 μg/mL^−1.

`COc1cccc(NNC(=O)c2ccc(Br)cn2)c1` [Compound 4c]: under setting [1], the MIC is 0.98 µg/mL (≈ 3.04 µM).

Consider `O=C(NNc1cccc(F)c1)c1cnccn1` [Compound 9a], for which the MIC is 0.98 μg/mL^−1.

`O=C(NNc1ccc(F)cc1F)c1ccc(F)cc1F` [Compound 1g]: the MIC under setting [1] was 7.8 µg/mL (≈ 27.4 µM).

As to `O=C(NNc1cccc(F)c1)c1nc(F)ccc1F` [Compound 8a], the MIC is reported as 1.95 μg/mL^−1.

Consider `O=C(NNc1cc(Cl)cc(Cl)c1)c1cnccn1` [Compound 9j], for which the MIC under setting [1] turned out to be 7.8 µg/mL (≈ 27.6 µM).

Consider `COc1cccc(NNC(=O)c2ncc(F)cc2F)c1` [Compound 7c], for which the MIC under setting [1] amounted to 15.6 µg/mL (≈ 55.9 µM).
